Measurements: US12285460B2, “Pharmaceutical compositions” (RHYTHM PHARMACEUTICALS, INC., priority 2013, dated 2025)
Bridge positions count the residues as written; N and C are the ends. Square brackets hold non-standard residues; d marks the D form. Peptide text beside a SMILES is read from it. hCys = N[C@@H](CCS)C(=O)O

What was measured:
MC1R = biological target: T1, MC1R (Homo sapiens, UniProt Q01726); assay: cAMP assay (EC50), MC1R; assay type: cell-based; conditions: EC50(MC1R)/EC50(MC4R)
T1 construct: host or cells: CHO-K1 (ECL assay)
T1 sequence (Q01726 whole entry): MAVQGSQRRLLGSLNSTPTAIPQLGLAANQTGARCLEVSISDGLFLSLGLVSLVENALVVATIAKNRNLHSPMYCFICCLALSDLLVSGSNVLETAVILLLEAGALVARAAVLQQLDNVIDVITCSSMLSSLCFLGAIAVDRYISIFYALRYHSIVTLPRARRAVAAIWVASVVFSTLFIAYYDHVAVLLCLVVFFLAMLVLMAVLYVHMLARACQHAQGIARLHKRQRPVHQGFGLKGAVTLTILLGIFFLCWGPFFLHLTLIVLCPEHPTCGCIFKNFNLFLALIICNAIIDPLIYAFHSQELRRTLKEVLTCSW
Description: (§1) Stimulation of intracellular cyclic AMP (cAMP) levels by the peptides is determined in a dose dependent manner by an electrochemiluminescence (ECL) assay (Meso Scale Discovery, Gaithersburg, MD, USA; referred to hereinafter as “MSD”). Briefly, the CHO-K1 cells stably expressing the hMC receptor subtypes are suspended in RMPI 1640® assay buffer (RMPI 1640 buffer contains 0.5 mM IBMX, and 0.2% protein cocktail (MSD blocker A)). About 7,000 cells/well of the transgenic CHO-K1 cells stably expressing hMC receptor subtypes 1, 3, 4 or 5 are dispensed in 384-well Multi-Array plates (MSD) containing integrated carbon electrodes and coated with anti-cAMP antibody. Increasing concentrations of the test compounds are added and the cells are incubated for approximately 40 minutes at 37° C. A cell lysis buffer (HEPES-buffered saline solution with MgCl2 and Triton X-100® at pH 7.3) containing 0.2% protein cocktail and 2.5 nM TAG™ ruthenium-labeled cAMP (MSD) is added and the cells are incubated for approximately 90 minutes at room temperature. At the end of the second incubation period, the read buffer (Tris-buffered solution containing an ECL co-reactant and Triton X-100 at pH 7.8) is added and the cAMP levels in the cell lysates are immediately determined by ECL detection with a Sector Imager 6000 Reader® (MSD). Data are analyzed using a computer-assisted non-linear regression analysis (XL fit; IDBS) and reported as either an EC50 value.
(§2) Human MC4-R transfected cells are grown to confluence in 96 well plates (plating approximately 250,000 cells per well). The cells are treated in triplicate sets with 0.2 mM isobutylmethylxanthine (IBMX) and graded concentrations of the peptide or alternatively the peptide in the presence of 20 nM NDP-MSH. Cells similarly treated but with only 20 nM NDP-MSH serve as positive controls in a volume of 200 μL. A buffer blank serving as a negative control is also included. After incubation of one hour at 37° C., the cells are lysed by the addition of 50 μL of a cell lysis buffer. Total cAMP accumulated in 250 μL of this incubation medium is quantitated using a commercially available low pH cAMP assay kit (Amersham BioSciences) as per procedure specified by the kit supplier. […] The data for agonist is plotted and curve fitted to determine the EC50 value. A peptide showing accumulation in the same range as the negative control (buffer blank in the absence of alpha-MSH) is ineffective at the test concentration. A peptide showing attenuated accumulation is considered to be an antagonist if there is inhibition in cAMP when alpha-MSH is also present in the assay. Similar assay can be performed with hMC-1R, hMC-3R, and hMC-5R cells.
(§3) A chemiluminescence readout system that uses an enzyme fragment complementation (EFC) system with β-galactosidase (β-Gal) as the functional reporter system was used. This assay system for various melanocortin receptor systems is commercially available (cAMP Hunter GPCR assay system, Discoverx Corp, Fremont, CA). This assay utilizes the β-Gal enzyme that is split into two complementary portions; EA for Enzyme Acceptor and ED for Enzyme Donor. In the assay, the ED portion fused to cAMP is made to compete with cAMP generated by cells for binding to a cAMP-specific antibody. The EA is then added to form active β-Gal with any unbound ED-cAMP.
(§4) Briefly, 10000 cells per well are plated overnight and each well (cells incubated with 10 μl assay buffer) is then incubated with 4× serial concentration of the test compound in the cell assay buffer (5 μL) and cAMP antibody reagent (5 μL) for 30 min at 37° C. The cell lysis buffer (20 μL) containing ED-cAMP coupled enzyme fragment and the reporter substrate (Emerald II-Galacton Star, 5:1) is then added and incubated for 60 min at room temperature. Next, 20 μL of EA β-Gal fragment reagent is added.

MC3R = biological target: T2, MC3R (Homo sapiens, UniProt P41968); assay: cAMP assay (EC50), MC3R; assay type: cell-based; conditions: EC50(MC3R)/EC50(MC4R)
T2 construct: host or cells: CHO-K1 (ECL assay)
T2 sequence (P41968 whole entry): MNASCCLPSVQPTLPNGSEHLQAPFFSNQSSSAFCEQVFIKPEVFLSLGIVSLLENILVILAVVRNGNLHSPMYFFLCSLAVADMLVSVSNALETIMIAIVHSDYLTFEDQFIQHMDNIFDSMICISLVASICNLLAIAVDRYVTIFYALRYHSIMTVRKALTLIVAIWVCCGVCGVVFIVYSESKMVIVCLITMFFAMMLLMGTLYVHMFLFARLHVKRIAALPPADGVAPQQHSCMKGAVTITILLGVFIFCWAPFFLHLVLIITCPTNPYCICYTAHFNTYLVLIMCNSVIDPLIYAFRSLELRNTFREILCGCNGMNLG
Description: as §1, §2, §3, §4

MC5R = biological target: T3, MC5R (Homo sapiens, UniProt P33032); assay: cAMP assay (EC50), MC5R; assay type: cell-based; conditions: for Ratios of EC50 values MC5/4: EC50(MC5R)/EC50(MC4R)
T3 construct: host or cells: CHO-K1 (ECL assay)
T3 sequence (P33032 whole entry): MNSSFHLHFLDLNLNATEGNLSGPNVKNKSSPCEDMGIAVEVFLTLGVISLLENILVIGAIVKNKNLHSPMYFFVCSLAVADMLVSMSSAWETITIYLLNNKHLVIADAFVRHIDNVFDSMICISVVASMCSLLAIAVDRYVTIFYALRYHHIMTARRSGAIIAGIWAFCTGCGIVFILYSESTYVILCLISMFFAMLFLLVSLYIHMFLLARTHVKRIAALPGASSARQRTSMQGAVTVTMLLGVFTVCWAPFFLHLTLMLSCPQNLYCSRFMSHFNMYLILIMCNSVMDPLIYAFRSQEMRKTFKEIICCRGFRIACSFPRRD
Description: Stimulation of intracellular cyclic AMP (cAMP) levels by the peptides is determined in a dose dependent manner by an electrochemiluminescence (ECL) assay (Meso Scale Discovery, Gaithersburg, MD, USA; referred to hereinafter as “MSD”). Briefly, the CHO-K1 cells stably expressing the hMC receptor subtypes are suspended in RMPI 1640® assay buffer (RMPI 1640 buffer contains 0.5 mM IBMX, and 0.2% protein cocktail (MSD blocker A)). About 7,000 cells/well of the transgenic CHO-K1 cells stably expressing hMC receptor subtypes 1, 3, 4 or 5 are dispensed in 384-well Multi-Array plates (MSD) containing integrated carbon electrodes and coated with anti-cAMP antibody. Increasing concentrations of the test compounds are added and the cells are incubated for approximately 40 minutes at 37° C. A cell lysis buffer (HEPES-buffered saline solution with MgCl2 and Triton X-100® at pH 7.3) containing 0.2% protein cocktail and 2.5 nM TAG™ ruthenium-labeled cAMP (MSD) is added and the cells are incubated for approximately 90 minutes at room temperature. At the end of the second incubation period, the read buffer (Tris-buffered solution containing an ECL co-reactant and Triton X-100 at pH 7.8) is added and the cAMP levels in the cell lysates are immediately determined by ECL detection with a Sector Imager 6000 Reader® (MSD). Data are analyzed using a computer-assisted non-linear regression analysis (XL fit; IDBS) and reported as either an EC50 value. […]
as §3, with “ED-cAMP. This active enzyme then converts a chemiluminescent substrate to generate an output signal that is recorded on a standard microplate reader.” for “ED-cAMP.”
as §4

[1] = Pharmacokinetics of formulations after single subcutaneous bolus in Cynomolgus monkeys; assay type: in vivo; conditions: cynomolgus monkey, plasma, sc, 0.5 mg/kg body weight
Description: A group of Cynomolgus monkeys (average body weight range of 3 to 7 kg) were randomized into a group of 6 for each formulation described above and for Formulation 3A. Each monkey in the cohort was subcutaneously administered in the scapular area with a single bolus dose of a formulation calculated at 0.5 mg/kg body weight. Blood samples were taken at various time points staring at 30 minutes post dosing to 36 or 48 hours. The plasma was harvested and peptide drug concentration assays using LC-MS/MS technique. The pharmacokinetic data is presented in Table 3 below, and the pharmacokinetic profile is set forth graphically in FIG. 1, FIG. 2, and FIG. 3.

Row | Ratios of EC50 values MC1/4 (MC1R) | Ratios of EC50 values MC3/4 (MC3R) | Ratios of EC50 values MC5/4 (MC5R) | SMILES | EC50 (MC5R) | Cmax [1] | Tmax [1]
1 | 120 | 420 | >1338 | CC(=O)N[C@@H](CCCNC(=N)N)C(=O)N[C@H]1CCSSC[C@@H](C(N)=O)NC(=O)[C@H](Cc2c[nH]c3ccccc23)NC(=O)[C@H](CCCNC(=N)N)NC(=O)[C@@H](Cc2ccccc2)NC(=O)[C@@H](C)NC1=O [Compound 16, Ac-Arg-cyclo[hCys-D-Ala-D-Phe-Arg-Trp-Cys]-NH2] (Ac-R[hCys][dA][dF]RWC-NH2; disulfide 2-7) |  |  | 
2 | 5 | >200 | 13 | CC(=O)N[C@@H](CCCNC(=N)N)C(=O)N[C@H]1CSSC[C@@H](C(N)=O)NC(=O)[C@H](Cc2c[nH]c3ccccc23)NC(=O)[C@H](CCCNC(=N)N)NC(=O)[C@@H](Cc2ccccc2)NC(=O)[C@@H]2CCCN2C(=O)[C@@H](C)NC1=O [Compound 13, Ac-Arg-cyclo[Cys-D-Ala-Pro-D-Phe-Arg-Trp-Cys]-NH2] (Ac-RC[dA]P[dF]RWC-NH2; disulfide 2-8) |  |  | 
3 | 40 | 5 | 155 | CC(=O)N[C@@H](CCCNC(=N)N)C(=O)N[C@H]1CSSC[C@@H](C(N)=O)NC(=O)[C@H](Cc2c[nH]c3ccccc23)NC(=O)[C@H](CCCNC(=N)N)NC(=O)[C@@H](Cc2ccccc2)NC(=O)[C@H](CCC(N)=O)NC(=O)[C@@H](C)NC1=O [Compound 8, Ac-Arg-cyclo[Cys-D-Ala-Gln-D-Phe-Arg-Trp-Cys]-NH2] (Ac-RC[dA]Q[dF]RWC-NH2; disulfide 2-8) |  |  | 

Second part, the molecule before the results:

Row | SMILES | Ratios of EC50 values MC1/4 (MC1R) | Ratios of EC50 values MC3/4 (MC3R) | Ratios of EC50 values MC5/4 (MC5R) | EC50 (MC5R) | Cmax [1] | Tmax [1]
4 | CC(=O)N[C@@H](CCCNC(=N)N)C(=O)N[C@H]1CSSC[C@@H](C(N)=O)NC(=O)[C@H](Cc2c[nH]c3ccccc23)NC(=O)[C@H](CCCNC(=N)N)NC(=O)[C@@H](Cc2ccccc2)NC(=O)[C@H](Cc2cn(C)cn2)NC(=O)[C@@H](C)NC1=O [Compound 6, Ac-Arg-cyclo[Cys-D-Ala-His(1-Me)-D-Phe-Arg-Trp-Cys]-NH2] | 40 | 6 | 662 |  |  | 
5 | CC(=O)N[C@@H](CCCNC(=N)N)C(=O)N[C@H]1CSSC[C@@H](C(N)=O)NC(=O)[C@H](Cc2c[nH]c3ccccc23)NC(=O)[C@H](CCCNC(=N)N)NC(=O)[C@@H](Cc2ccccc2)NC(=O)[C@H](Cc2c[nH]c3ccccc23)NC(=O)[C@@H](C)NC1=O [Compound 7, Ac-Arg-cyclo[Cys-D-Ala-Trp-D-Phe-Arg-Trp-Cys]-NH2] (Ac-RC[dA]W[dF]RWC-NH2; disulfide 2-8) | 8 | >290 | 7 |  |  | 
6 | CC(=O)N[C@@H](CCCNC(=N)N)C(=O)N[C@H]1CSSC[C@@H](C(N)=O)NC(=O)[C@H](Cc2c[nH]c3ccccc23)NC(=O)[C@H](CCCNC(=N)N)NC(=O)[C@@H](Cc2ccccc2)NC(=O)[C@H](Cc2c[nH]cn2)NC(=O)[C@@H](C)NC1=O [Peptide 1] |  |  |  | 1600 nM | 1100 ng/mL | 30 min
